Laboratory results reported in US6054435A, “6-O-substituted macrolides having antibacterial activity” (priority 1999, dated 2000).
≈ marks a conversion by molar mass, not a printed value.

Columns and labels:
Experiment in all cases: in vitro antibacterial activity (MIC), agar dilution
Assay type in all cases: cell-based
[1] = tested on: Streptococcus agalactiae CMX 508; settings: organism code KK; BHI agar, 35-37° C., 20 to 24 hours; unit assumed
Procedure, shortened: (§1)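 Test compound serially diluted in Brain Heart Infusion agar across twelve plates; inocula of 1:100 dilution (1:10 for slow growers such as Streptococcus) applied by Steers replicator. MIC taken visually as lowest concentration giving no growth, slight haze or sparse isolated colonies versus drug-free growth control.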

[2] = tested on: Micrococcus luteus ATCC 4698; settings: organism code PP; BHI agar, 35-37° C., 20 to 24 hours; unit assumed
Procedure, shortened: (§2)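 Endpoint: lowest concentration with no growth, slight haze or sparsely isolated colonies at the inoculum spot, judged against a compound-free BHI control. Strains were replicator-inoculated at 1:100 (1:10 for Streptococcus and other slow growers).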

[3] = tested on: Staphylococcus epidermidis 3519; settings: organism code HH; BHI agar, 35-37° C., 20 to 24 hours; unit assumed
Procedure, shortened: as §1

Escherichia coli JUHL = settings: organism code QQ; BHI agar, 35-37° C., 20 to 24 hours; unit assumed
Procedure, shortened: as §1

[4] = tested on: Streptococcus bovis A-5169; settings: organism code JJ; BHI agar, 35-37° C., 20 to 24 hours; unit assumed
Procedure, shortened: as §1

[5] = tested on: Streptococcus pyogenes 930; settings: organism code MM; BHI agar, 35-37° C., 20 to 24 hours; unit assumed
Procedure, shortened: as §1

[6] = tested on: Staphylococcus aureus NCTC10649M; settings: organism code EE; BHI agar, 35-37° C., 20 to 24 hours; unit assumed
Procedure, shortened: as §1

[7] = tested on: Streptococcus pyogenes PIU 2548; settings: organism code NN; BHI agar, 35-37° C., 20 to 24 hours; unit assumed
Procedure, shortened: as §1

[8] = tested on: Haemophilis Influenzae DILL AMP R; settings: organism code WW; BHI agar, 35-37° C., 20 to 24 hours; unit assumed
Procedure, shortened: as §1

[9] = tested on: Nocardia Asteroides ATCC9970; settings: organism code VV; BHI agar, 35-37° C., 20 to 24 hours; unit assumed
Procedure, shortened: as §1

[10] = tested on: Streptococcus Pneumonia 5649; settings: organism code ZZA; BHI agar, 35-37° C., 20 to 24 hours; unit assumed
Procedure, shortened: as §1

[11] = tested on: Enterococcus faecium ATCC 8043; settings: organism code II; BHI agar, 35-37° C., 20 to 24 hours; unit assumed
Procedure, shortened: as §1

Candida albicans CCH 442 = settings: organism code TT; BHI agar, 35-37° C., 20 to 24 hours; unit assumed
Procedure, shortened: as §1

[12] = tested on: Streptococcus Pneumonia ATCC6303; settings: organism code XX; BHI agar, 35-37° C., 20 to 24 hours; unit assumed
Procedure, shortened: as §1

Escherichia coli DC-2 = settings: organism code SS; BHI agar, 35-37° C., 20 to 24 hours; unit assumed
Procedure, shortened: as §1

[13] = tested on: Micrococcus luteus ATCC 9341; settings: organism code OO; BHI agar, 35-37° C., 20 to 24 hours; unit assumed
Procedure, shortened: as §2

[14] = tested on: Streptococcus pyogenes EES61; settings: organism code LL; BHI agar, 35-37° C., 20 to 24 hours; unit assumed
Procedure, shortened: as §1

[15] = tested on: Mycobacterium smegmatis ATCC 114; settings: organism code UU; BHI agar, 35-37° C., 20 to 24 hours; unit assumed
Procedure, shortened: as §1

[16] = tested on: Staphylococcus aureus 1775; settings: organism code GG; BHI agar, 35-37° C., 20 to 24 hours; unit assumed
Procedure, shortened: as §1

[17] = tested on: Staphylococcus aureus A-5278; settings: organism code CC; BHI agar, 35-37° C., 20 to 24 hours; unit assumed
Procedure, shortened: as §1

Escherichia coli SS = settings: organism code RR; BHI agar, 35-37° C., 20 to 24 hours; unit assumed
Procedure, shortened: as §1

[18] = tested on: Streptococcus Pneumonia 5979; settings: organism code ZZ; BHI agar, 35-37° C., 20 to 24 hours; unit assumed
Procedure, shortened: as §1

[19] = tested on: Staphylococcus aureus CMX 553; settings: organism code FF; BHI agar, 35-37° C., 20 to 24 hours; unit assumed
Procedure, shortened: as §1

[20] = tested on: Staphylococcus aureus CMX 642A; settings: organism code DD; BHI agar, 35-37° C., 20 to 24 hours; unit assumed
Procedure, shortened: as §1

[21] = tested on: Streptococcus Pneumonia GYR 1171; settings: organism code YY; BHI agar, 35-37° C., 20 to 24 hours; unit assumed
Procedure, shortened: as §1

[22] = tested on: Staphylococcus aureus A5177; settings: organism code BB; BHI agar, 35-37° C., 20 to 24 hours; unit assumed
Procedure, shortened: as §1

[23] = tested on: Staphylococcus aureus ATCC 6538P; settings: organism code AA; BHI agar, 35-37° C., 20 to 24 hours; unit assumed
Procedure, shortened: as §1

Structure (SMILES) | MIC [1] [µg/mL] | MIC [2] [µg/mL] | MIC [3] [µg/mL] | MIC (Escherichia coli JUHL) [µg/mL] | MIC [4] [µg/mL] | MIC [5] [µg/mL] | MIC [6] [µg/mL] | MIC [7] [µg/mL] | MIC [8] [µg/mL] | MIC [9] [µg/mL] | MIC [10] [µg/mL] | MIC [11] [µg/mL] | MIC (Candida albicans CCH 442) [µg/mL] | MIC [12] [µg/mL] | MIC (Escherichia coli DC-2) [µg/mL] | MIC [13] [µg/mL] | MIC [14] [µg/mL] | MIC [15] [µg/mL] | MIC [16] [µg/mL] | MIC [17] [µg/mL] | further results
CC[C@H]1OC(=O)[C@H](C)C(=O)[C@H](C)[C@@H](O[C@@H]2O[C@H](C)C[C@H](N(C)C)[C@H]2O)[C@](C)(OCC#Cc2ccc(-c3cncc(C(N)=O)c3)s2)C[C@@H](C)C(=O)[C@H](C)[C@H]2NC(=O)O[C@@]21C [Example 9] | 0.02 (≈ 0.0238 µM) | 0.1 (≈ 0.119 µM) | 0.1 (≈ 0.119 µM) | 50 (≈ 59.6 µM) | 0.02 (≈ 0.0238 µM) | 0.2 (≈ 0.238 µM) | 0.2 (≈ 0.238 µM) | 0.2 (≈ 0.238 µM) | 2 (≈ 2.38 µM) | 0.1 (≈ 0.119 µM) | 0.25 (≈ 0.298 µM) | 0.05 (≈ 0.0596 µM) | > 100 | ≤ 0.004 | 50 (≈ 59.6 µM) | 0.02 (≈ 0.0238 µM) | 0.02 (≈ 0.0238 µM) | 6.2 (≈ 7.39 µM) | > 100 | > 100 | MIC (Escherichia coli SS): 0.78 µg/mL (≈ 0.93 µM); MIC [18]: 0.03 µg/mL (≈ 0.0358 µM); MIC [19]: 0.1 µg/mL (≈ 0.119 µM); MIC [20]: 0.1 µg/mL (≈ 0.119 µM); MIC [21]: ≤ 0.004 µg/mL; MIC [22]: 0.1 µg/mL (≈ 0.119 µM); MIC [23]: 0.1 µg/mL (≈ 0.119 µM)
CCOC(=O)c1cncc(-c2ccc(C#CCO[C@]3(C)C[C@@H](C)C(=O)[C@H](C)[C@H]4NC(=O)O[C@]4(C)[C@@H](CC)OC(=O)[C@H](C)C(=O)[C@H](C)[C@H]3O[C@@H]3O[C@H](C)C[C@H](N(C)C)[C@H]3O)s2)c1 [Example 10] | 0.01 (≈ 0.0115 µM) | 0.2 (≈ 0.23 µM) | 0.2 (≈ 0.23 µM) | > 100 | 0.005 (≈ 0.00576 µM) | 50 (≈ 57.6 µM) | 0.2 (≈ 0.23 µM) | 0.2 (≈ 0.23 µM) | 8 (≈ 9.22 µM) | 0.1 (≈ 0.115 µM) | 0.5 (≈ 0.576 µM) | 0.1 (≈ 0.115 µM) | > 100 | 0.03 (≈ 0.0346 µM) | > 100 | 0.01 (≈ 0.0115 µM) | 0.01 (≈ 0.0115 µM) | 1.56 (≈ 1.8 µM) | > 100 | > 100 | MIC (Escherichia coli SS): 0.78 µg/mL (≈ 0.899 µM); MIC [18]: 4 µg/mL (≈ 4.61 µM); MIC [19]: 0.05 µg/mL (≈ 0.0576 µM); MIC [20]: 0.1 µg/mL (≈ 0.115 µM); MIC [21]: 0.03 µg/mL (≈ 0.0346 µM); MIC [22]: 0.1 µg/mL (≈ 0.115 µM); MIC [23]: 0.1 µg/mL (≈ 0.115 µM)
CC[C@H]1OC(=O)[C@H](C)C(=O)[C@H](C)[C@@H](O[C@@H]2O[C@H](C)C[C@H](N(C)C)[C@H]2O)[C@](C)(OCC#Cc2ccc(-c3ccccc3)s2)C[C@@H](C)C(=O)[C@H](C)[C@H]2NC(=O)O[C@@]21C [Example 13] | 0.1 (≈ 0.126 µM) | 0.2 (≈ 0.252 µM) | 0.78 (≈ 0.981 µM) | > 100 | 0.05 (≈ 0.0629 µM) | 100 (≈ 126 µM) | 0.78 (≈ 0.981 µM) | 0.39 (≈ 0.491 µM) | 32 (≈ 40.3 µM) | 0.78 (≈ 0.981 µM) | 2 (≈ 2.52 µM) | 0.05 (≈ 0.0629 µM) | > 100 | 0.25 (≈ 0.314 µM) | > 100 | 0.05 (≈ 0.0629 µM) | 0.02 (≈ 0.0252 µM) | 1.56 (≈ 1.96 µM) | > 100 | > 100 | MIC (Escherichia coli SS): 3.1 µg/mL (≈ 3.9 µM); MIC [18]: 4 µg/mL (≈ 5.03 µM); MIC [19]: 0.39 µg/mL (≈ 0.491 µM); MIC [20]: 0.39 µg/mL (≈ 0.491 µM); MIC [21]: 0.25 µg/mL (≈ 0.314 µM); MIC [22]: 0.39 µg/mL (≈ 0.491 µM); MIC [23]: 0.39 µg/mL (≈ 0.491 µM)
CC[C@H]1OC(=O)[C@H](C)C(=O)[C@H](C)[C@@H](O[C@@H]2O[C@H](C)C[C@H](N(C)C)[C@H]2O)[C@](C)(OCC#Cc2ccc(-c3cccc(C)c3)s2)C[C@@H](C)C(=O)[C@H](C)[C@H]2NC(=O)O[C@@]21C [Example 18] | 0.02 (≈ 0.0247 µM) | 0.2 (≈ 0.247 µM) | 0.2 (≈ 0.247 µM) | > 100 | 0.01 (≈ 0.0124 µM) | 1.56 (≈ 1.93 µM) | 0.2 (≈ 0.247 µM) | 0.2 (≈ 0.247 µM) | 2 (≈ 2.47 µM) | 0.1 (≈ 0.124 µM) | 0.5 (≈ 0.618 µM) | 0.1 (≈ 0.124 µM) | > 100 | 0.06 (≈ 0.0742 µM) | > 100 | 0.02 (≈ 0.0247 µM) | 0.02 (≈ 0.0247 µM) | 0.1 (≈ 0.124 µM) | 12.5 (≈ 15.5 µM) | 25 (≈ 30.9 µM) | MIC (Escherichia coli SS): 0.78 µg/mL (≈ 0.964 µM); MIC [18]: 2 µg/mL (≈ 2.47 µM); MIC [19]: 0.1 µg/mL (≈ 0.124 µM); MIC [20]: 0.1 µg/mL (≈ 0.124 µM); MIC [21]: 0.03 µg/mL (≈ 0.0371 µM); MIC [22]: 0.1 µg/mL (≈ 0.124 µM); MIC [23]: 0.1 µg/mL (≈ 0.124 µM)
CC[C@H]1OC(=O)[C@H](C)C(=O)[C@H](C)[C@@H](O[C@@H]2O[C@H](C)C[C@H](N(C)C)[C@H]2O)[C@](C)(OCC#Cc2ccc(-c3cccc(C(F)(F)F)c3)s2)C[C@@H](C)C(=O)[C@H](C)[C@H]2NC(=O)O[C@@]21C [Example 19] | 0.05 (≈ 0.0579 µM) | 0.39 (≈ 0.452 µM) | 0.39 (≈ 0.452 µM) | > 100 | 0.05 (≈ 0.0579 µM) | 3.1 (≈ 3.59 µM) | 0.39 (≈ 0.452 µM) | 0.39 (≈ 0.452 µM) | 4 (≈ 4.63 µM) | 0.39 (≈ 0.452 µM) | 1 (≈ 1.16 µM) | 0.39 (≈ 0.452 µM) | > 100 | 0.125 (≈ 0.145 µM) | > 100 | 0.2 (≈ 0.232 µM) | 0.1 (≈ 0.116 µM) | 0.39 (≈ 0.452 µM) | 12.5 (≈ 14.5 µM) | 25 (≈ 29 µM) | MIC (Escherichia coli SS): 3.1 µg/mL (≈ 3.59 µM); MIC [18]: 4 µg/mL (≈ 4.63 µM); MIC [19]: 0.39 µg/mL (≈ 0.452 µM); MIC [20]: 0.39 µg/mL (≈ 0.452 µM); MIC [21]: 0.125 µg/mL (≈ 0.145 µM); MIC [22]: 0.39 µg/mL (≈ 0.452 µM); MIC [23]: 0.39 µg/mL (≈ 0.452 µM)
